The subject of assay [1] is NCI-H460. Nature of the assay: Compound was tested for growth inhibition of human non-small cell lung cancer NCI-H460 cell line. In kind it is functional.
Assay [2] relates to HCT-15. Nature of the assay: Compound was tested for growth inhibition of multidrug resistant tumor HCT-15 cell line. Type of assay: functional. Particulars: Homo sapiens.
Assay [3] has as its system A549. Nature of the assay: Inhibition of human non-small cell lung cancer A549 cell proliferation. Type of assay: functional.
A short description of assay [4]: Compound was tested for inhibition of tubulin polymerisation.
Assay [5] deals with A498. Nature of the assay: Compound was tested for growth inhibition of multidrug resistant tumor A498 cell line. As to conditions: Homo sapiens. In kind it is functional.
The test system of assay [6] is HCT-116. Nature of the assay: Compound was tested for growth inhibition of human colon carcinoma HCT116 cell line. Type of assay: functional.
For assay [7], the system named is NCI-H226. Nature of the assay: Compound was tested for growth inhibition of multidrug resistant tumor NCI-H226 cell line. In kind it is functional. Particulars: Homo sapiens.
Assay [8] relates to MCF7. Nature of the assay: Compound was tested for growth inhibition of MCF-7 cell line (non multidrug resistant). In kind it is functional. Particulars: Homo sapiens.
Assay [9] has as its system NCI/ADR-RES. Nature of the assay: Compound was tested for growth inhibition of multidrug resistant tumor MCF-7/ADR cell line. Particulars: Homo sapiens. In kind it is functional.
Assay [10] can be described thus: Compound was tested for inhibition of tubulin polymerisation at 1 uM.

A value given as a limit tells only on which side of the number the result lay.

For the compound `O=C(CNc1ccccc1)N1CCc2cc(S(=O)(=O)N3C[C@H](c4ccccc4)NC3=O)ccc21`, the GI50 (usually the concentration giving 50% growth inhibition) in assay [1] turned out to be 150 nM; in assay [2] it was 100 nM; in assay [3] it was 80 nM; in assay [5] it was 150 nM; in [6] it was 50 nM; in [7], 150 nM. Besides, the values for the GI50 in [8] and in [9] were 150 nM and 180 nM, respectively. The IC50 (in general, the concentration that gives 50% inhibition) in assay [4] stood at 3500 nM.
Consider `CC(=O)O[C@H]1C(=O)[C@@]2(C)[C@H]([C@H](OC(=O)c3ccccc3)[C@]3(O)C[C@H](OC(=O)[C@H](O)[C@@H](NC(=O)c4ccccc4)c4ccccc4)C(C)=C1C3(C)C)[C@]1(OC(C)=O)CO[C@@H]1C[C@@H]2O` [PACLITAXEL], for which the GI50 in assay [1] is 7 nM; in [2] it was 300 nM; in assay [3], 10 nM; in assay [5] it was 3500 nM; in assay [6], < 1 nM; in [7], 20000 nM. Further, the GI50 in [8] amounted to 10 nM; in assay [9], 8000 nM.
Regarding `O=C(NC1CCCCC1)N1CCc2cc(S(=O)(=O)N3C[C@H](c4ccccc4)NC3=O)ccc21`, the 50% growth inhibitory concentration (GI50) amounted to 80 nM in assay [1]; 120 nM in assay [2]; 60 nM in assay [3]; 700 nM in assay [5]; 50 nM in [6]; 150 nM in assay [7]. The GI50 in [8] came to 150 nM; in assay [9] it was 1300 nM. The IC50 in [4] was found to be 2000 nM.
Regarding `O=C(c1ccncc1)N1CCc2cc(S(=O)(=O)N3C[C@H](c4ccccc4)NC3=O)ccc21`, the GI50 was 90 nM in assay [1], 130 nM in assay [3] and 80 nM in [6]. This compound returned an IC50 in [4] of 10300 nM.
For the compound `O=C(NCCN1CCOCC1)N1CCc2cc(S(=O)(=O)N3C[C@H](c4ccccc4)NC3=O)ccc21`, the GI50 came out at 1000 nM in assay [1], 2800 nM in assay [3] and 1200 nM in [6].
In the case of `CN1CCN(CCOC(=O)N2CCc3cc(S(=O)(=O)N4C[C@H](c5ccccc5)NC4=O)ccc32)CC1`, the GI50 in assay [1] came out at 900 nM; in assay [3], 1000 nM; in assay [6], 1000 nM. For the same compound, in assay [4], inhibition was half-maximal at 30000 nM (IC50).
`O=C(c1ccco1)N1CCc2cc(S(=O)(=O)N3CC(c4cccs4)NC3=O)ccc21` (centres undefined): the results for the 50% growth inhibitory concentration (GI50) in [1], in assay [3] and in assay [6] were 60 nM, 60 nM and 70 nM, respectively. For the same compound, 4000 nM corresponded to half-maximal inhibition in [4] (IC50).
As to `CCOC(=O)N1CCc2cc(S(=O)(=O)N3C[C@H](c4ccccc4)NC3=O)ccc21`, the GI50 in assay [1], in assay [3] and in assay [6] was 80 nM each time. For the same compound, in [4], 1500 nM corresponded to half-maximal inhibition (IC50).
On to `CCOC(=O)Nc1ccc(S(=O)(=O)N2C[C@H](c3ccccc3)NC2=O)cc1C`, for which the GI50 in [1] came to 70 nM; in assay [2], 100 nM; in assay [3], 40 nM; in [5], 130 nM; in assay [6] it was 70 nM; in assay [7] it was 450 nM. Further, the GI50 in assay [8] and in assay [9] was 150 nM each time. Half-maximal inhibition in assay [4] (IC50) required 6000 nM.
Consider `O=C(c1cccs1)N1CCc2cc(S(=O)(=O)N3C[C@H](c4ccccc4)NC3=O)ccc21`, for which the GI50 in assay [1] amounted to 20 nM; in [3], 20 nM; in [6], 10 nM. Further, the IC50 in [4] was found to be 1600 nM.
Turning to `Nc1ccc(C(=O)N2CCc3cc(S(=O)(=O)N4C[C@H](c5ccccc5)NC4=O)ccc32)cc1`, the concentration for 50% growth inhibition (GI50) in assay [1] is 20 nM; in assay [2], 120 nM; in assay [3], 20 nM; in assay [5], 1200 nM; in assay [6], 10 nM; in [7] it was 100 nM. Further, the 50% growth inhibitory concentration (GI50) in assay [8] turned out to be 10 nM; in [9], 2000 nM. Half-maximal inhibition in assay [4] (IC50) required 1500 nM.
Consider `CC[C@]1(O)C[C@H]2CN(CCc3c([nH]c4ccccc34)[C@@](C(=O)OC)(c3cc4c(cc3OC)N(C=O)[C@H]3[C@@](O)(C(=O)OC)[C@H](OC(C)=O)[C@]5(CC)C=CCN6CC[C@]43[C@@H]65)C2)C1` [VINCRISTINE], for which the results for the GI50 in assay [1], in assay [3] and in [6] were 3 nM, 20 nM and 1 nM, respectively.
Regarding `Nc1ccc(C(=O)N2CCc3cc(S(=O)(=O)N4CC(c5cccs5)NC4=O)ccc32)cc1` (centres undefined), the concentration for 50% growth inhibition (GI50) in assay [1] was found to be 250 nM; in assay [3], 180 nM; in [6], 300 nM. This compound also displayed an IC50 in assay [4] of 10500 nM.
With `Nc1ccc(C(=O)Nc2ccc(S(=O)(=O)N3C[C@H](c4ccccc4)NC3=O)cc2Cl)cc1`, the GI50 in [1], in [3] and in assay [6] was 60 nM throughout. The compound also had an IC50 in [4] of 5500 nM.
On to `O=C(Cc1cccs1)N1CCc2cc(S(=O)(=O)N3C[C@H](c4ccccc4)NC3=O)ccc21`, for which the GI50 in assay [1] was found to be 7 nM; in assay [3], 7 nM; in assay [6] it was 6 nM. Besides, the inhibition (commonly the drop in the measured response relative to a control, in per cent) in assay [10] worked out at 82%. The concentration for half-maximal inhibition (IC50) in assay [4] was < 1000 nM.
As to `O=C(c1ccc([N+](=O)[O-])o1)N1CCc2cc(S(=O)(=O)N3C[C@H](c4ccccc4)NC3=O)ccc21`, the concentration for 50% growth inhibition (GI50) in assay [1] is 950 nM; in assay [3], 950 nM; in assay [6], 270 nM. The compound also displayed an IC50 in assay [4] of 40000 nM.
Regarding `O=C(c1cc(Cl)nc(Cl)c1)N1CCc2cc(S(=O)(=O)N3C[C@H](c4ccccc4)NC3=O)ccc21`, the GI50 in [1] turned out to be 700 nM; in assay [3], 380 nM; in assay [6], 380 nM. In [4], this compound returned an IC50 of 22000 nM.
Consider `Nc1ccc(C(=O)N2CCc3cc(S(=O)(=O)N4CC(c5ccc(F)cc5)NC4=O)ccc32)cc1` (centres undefined), for which the GI50 in assay [1] was 900 nM; in assay [3], 1200 nM; in assay [6], 1100 nM.
